Reference: patent US20040242426A1, “New derivatives of substituted anilined with herbicidal activity” (priority 2001, published 2004)

Experiments:
Format in all cases: in vivo
[1] = test system: wheat (F); experiment: Phytotoxicity in pre-emergence; settings: wheat (crop), dose 500 g/ha, 28 days after treatment, damage scale 0-5 vs blank
Experimental: (§1) Determination of the herbicidal activity and phytotoxicity in pre-emergence. The herbicidal activity of the compounds of the invention in pre-emergence was evaluated according to the following operating procedure. The vegetable species of interest (weeds or crops) were planted in vases having a diameter of over 10 cm, a height of 10 cm and containing sandy soil. 10 vases were used for each vegetable species. The vases were divided into a further two groups each containing 5 vases for each weed or crop. 24 hours after planting, the vases were dampened with a light shower. An hour after wetting, the first group of vases was treated with a hydro-acetone dispersion containing acetone at 10% v, the product to be evaluated at the desired concentration and Tween 20 at 0.5%. The second group was only treated with a hydroacetone solution containing acetone at 10% by volume and Tween 20 at 0.5%, and was used as a comparison (blank). […]

[2] = test system: maize (M); experiment: Phytotoxicity in pre-emergence; settings: maize (crop), dose 500 g/ha, 28 days after treatment, damage scale 0-5 vs blank
Experimental: as §1

[3] = test system: Portulaca oleracea (PO); experiment: Herbicidal activity in pre-emergence; settings: dose 500 g/ha, 28 days after treatment, damage scale 0-5 vs blank
Experimental: (§2) Determination of the herbicidal activity and phytotoxicity in pre-emergence. The herbicidal activity of the compounds of the invention in pre-emergence was evaluated according to the following operating procedure. The vegetable species of interest (weeds or crops) were planted in vases having a diameter of over 10 cm, a height of 10 cm and containing sandy soil. 10 vases were used for each vegetable species. The vases were divided into a further two groups each containing 5 vases for each weed or crop. 24 hours after planting, the vases were dampened with a light shower. An hour after wetting, the first group of vases was treated with a hydro-acetone dispersion containing acetone at 10% v, the product to be evaluated at the desired concentration and Tween 20 at 0.5%. The second group was only treated with a hydroacetone solution containing acetone at 10% by volume and Tween 20 at 0.5%, and was used as a comparison (blank). After the treatment, all the vases were uniformly watered and kept in a conditioned environment under the following environmental conditions: temperature: 24° C. relative humidity: 60% photoperiod: 16 hours light intensity: 10,000 lux 28 days after treatment, the herbicidal activity was evaluated on the basis of the following scale of values referring to the percentage of damage measured on the treated plants with respect to those not treated (blank): Table 3 indicates the results obtained with compounds C-1, C-2 and C-3, evaluated at a dose of 500 g/ha on the following vegetable species: Amarantus retroflexus (AR), Capsella bursa pastoris (CP), Chenopodium album (CA), Galium aparine (GA), Matricaria chamomilla (MC), Papaver rhoeas (PR), Portulaca oleracea (PO), Stellaria media (SM), Alopecurus myosuroides (AM), Panicum dicothomiflorum (PD), maize (M), wheat (F).

[4] = test system: Galium aparine (GA); experiment: Herbicidal activity in pre-emergence; settings: dose 500 g/ha, 28 days after treatment, damage scale 0-5 vs blank
Experimental: as §2

[5] = test system: Capsella bursa pastoris (CP); experiment: Herbicidal activity in pre-emergence; settings: dose 500 g/ha, 28 days after treatment, damage scale 0-5 vs blank
Experimental: as §2

[6] = test system: Papaver rhoeas (PR); experiment: Herbicidal activity in pre-emergence; settings: dose 500 g/ha, 28 days after treatment, damage scale 0-5 vs blank
Experimental: as §2

[7] = test system: Chenopodium album (CA); experiment: Herbicidal activity in pre-emergence; settings: dose 500 g/ha, 28 days after treatment, damage scale 0-5 vs blank
Experimental: as §2

[8] = test system: Amarantus retroflexus (AR); experiment: Herbicidal activity in pre-emergence; settings: dose 500 g/ha, 28 days after treatment, damage scale 0-5 vs blank
Experimental: as §2

[9] = test system: Panicum dicothomiflorum (PD); experiment: Herbicidal activity in pre-emergence; settings: dose 500 g/ha, 28 days after treatment, damage scale 0-5 vs blank
Experimental: as §2

[10] = test system: Alopecurus myosuroides (AM); experiment: Herbicidal activity in pre-emergence; settings: dose 500 g/ha, 28 days after treatment, damage scale 0-5 vs blank
Experimental: as §2

[11] = test system: Stellaria media (SM); experiment: Herbicidal activity in pre-emergence; settings: dose 500 g/ha, 28 days after treatment, damage scale 0-5 vs blank
Experimental: as §2

[12] = test system: Matricaria chamomilla (MC); experiment: Herbicidal activity in pre-emergence; settings: dose 500 g/ha, 28 days after treatment, damage scale 0-5 vs blank
Experimental: as §2

| Structure (SMILES) | Herbicidal activity (phytotoxicity) in pre-emergence, F [1] | Herbicidal activity (phytotoxicity) in pre-emergence, M [2] | Herbicidal activity in pre-emergence, PO [3] | Herbicidal activity in pre-emergence, GA [4] | Herbicidal activity in pre-emergence, CP [5] | Herbicidal activity in pre-emergence, PR [6] | Herbicidal activity in pre-emergence, CA [7] | Herbicidal activity in pre-emergence, AR [8] | Herbicidal activity in pre-emergence, PD [9] | Herbicidal activity in pre-emergence, AM [10] | Herbicidal activity in pre-emergence, SM [11] | Herbicidal activity in pre-emergence, MC [12] |
| --- | --- | --- | --- | --- | --- | --- | --- | --- | --- | --- | --- | --- |
| Cc1ccc(NC(=O)C2CC2)c(COc2cccc(C(F)(F)F)c2)c1 [C-2, N-[4-methyl-2-(3-trifluoromethylphenoxy)methylphenyl]cyclopropanecarboxamide] | 0 (0=0-9% damage) | 0 (0=0-9% damage) | 5 (5=90% damage—death of the plant) | 5 (5=90% damage—death of the plant) | 5 (5=90% damage—death of the plant) | 5 (5=90% damage—death of the plant) | 5 (5=90% damage—death of the plant) | 5 (5=90% damage—death of the plant) | 5 (5=90% damage—death of the plant) | 5 (5=90% damage—death of the plant) | 5 (5=90% damage—death of the plant) | 5 (5=90% damage—death of the plant) |
| Cc1ccc(NC(=O)C2CC2)c(OCc2cccc(C(F)(F)F)c2)c1 [C-1, N-[4-methyl-2-(3-trifluoromethylphenyl)-methoxyphenyl]cyclopropanecarboxamide] | – | – | 5 (5=90% damage—death of the plant) | 5 (5=90% damage—death of the plant) | 5 (5=90% damage—death of the plant) | 5 (5=90% damage—death of the plant) | 5 (5=90% damage—death of the plant) | 5 (5=90% damage—death of the plant) | 5 (5=90% damage—death of the plant) | 5 (5=90% damage—death of the plant) | 5 (5=90% damage—death of the plant) | 5 (5=90% damage—death of the plant) |
